# Reference: patent US20120283293A1, “Methods of neuroprotection involving Prostaglandin E2 EP4 (PGE2 EP4) receptor activation” (The Board of Trustees of the Leland Stanford Junior …, priority 2011, published 2012)
# Tested on: NF-κB subunits p65 and p50 in BV-2 cells
# Assay: NF-κB p65/p50 nuclear translocation in LPS-stimulated BV-2 cells (Western, immunofluorescence)
# Type: cell-based, murine
# Experimental: Nuclear and cytoplasmic fractions of BV-2 cells were prepared at several time points after treatment (0-120 minutes) using the nuclear extract kit from Active Motif (Carlsbad, Calif.). Briefly, cells were washed, collected in ice-cold PBS in the presence of phosphatase inhibitors, and centrifuged at 300×g for 5 min at 4° C. Cell pellets were resuspended in hypotonic buffer, treated with detergent, and centrifuged at 14,000×g for 30 sec at 4° C. After collection of the cytoplasmic fraction, nuclei were solubilized for 30 min in lysis buffer containing protease inhibitors. Lysates were centrifuged at 14,000×g for 30 min at 4° C. and supernatants were collected for NF-κB studies. To prepare whole cell lysates for phospho-Akt and phospho-IKK studies, cells were washed in ice-cold PBS and lysed in 20 mM Tris-HCl, pH 7.5, 150 mM NaCl, 1 mM Na2EDTA, 1 mM EGTA, 1% Triton, 2.5 mM sodium pyrophosphate, 1 mM β-glycerophosphate, 1 mM orthovanadate, 1 μg/ml leupeptin and 1 mM PMSF. Lysates were sonicated for 5 seconds, centrifuged at 14,000×g for 10 min at 4° C. and supernatants were collected for phospho-Akt and phospho-IKK studies. All protein concentrations were determined using the Bradford protein assay.
# Western blot analysis. Protein (20 μg per lane) was fractionated using 12% SDS-PAGE and electrophoretically transferred to PVDF membranes (Bio-Rad, Hercules, Calif.). For phospho-Akt/Akt and phospho-IKK/IKK studies, membranes were probed with anti phospho-Ser473 Akt antibody or anti-phospho-IKK antibody (1:1000, Cell signaling, Beverly, Mass.) and anti-Akt and anti-IKK antibodies (1:1000; Cell Signaling). For NF-κB nuclear translocation studies, membranes were probed with anti-NF-κB p105/p50 antibody (1:5000, Abcom, Cambridge, Mass.) or anti-NF-κB p65 antibody (1:300, Santa Cruz Biotechnology). Loading controls included anti-actin antibody (1:10,000, Santa Cruz Biotechnology, Inc. Santa Cruz, Calif.) for cytosolic fractions and anti-lamin B1 antibody (1:10,000, Abcom, Cambridge, Mass.) for nuclear fractions. Immunoreactivity was detected using either sheep anti-rabbit or sheep anti-mouse HRP-conjugated secondary antibody (Amersham Biosciences, Arlington Heights, Ill.), followed by enhanced chemiluminescence (Pierce). Autoradiographic signals were quantified using NIH Image. Experiments were repeated in triplicate.
# BV-2 cells were seeded on poly-L-Lysine coated glass coverslips and were maintained in culture for at least 24 hours before treatment with LPS+/−AE1-329. After one hour of treatment, cells were fixed with 4% paraformaldehyde and processed for immunocytochemistry using established protocols. NF-κB cellular localization was detected using rabbit anti-NF-κB p65 antibody (1:200, Santa Cruz Biotechnology) and Cy3-conjugated donkey anti-rabbit secondary antibody (Jackson ImmunoResearch Laboratories, West Grove, Pa.). Nuclei were visualized using Hoechst 33258 dye (MP Biomedicals, Solon, Ohio). Images were acquired using a Nikon Eclipse E600 microscope (Nikon Instruments, Melville, N.Y.) and a Hamamatsu Orca-ER digital camera (Hamamatsu Photonics, Bridgewater, N.J.). For quantification of nuclear NF-κB p65 levels, images were analyzed using the measurements module of Volocity 4.3.2 image analysis software (Improvision Inc., Waltham, Mass.). […] For data quantification, each data point represented the average NF-κB p65 signal from the nuclei in one field of view (>100 cells). […]
structure (smiles),measurement,setting,value
COCc1ccccc1CC[C@H](O)/C=C/[C@H]1[C@H](O)CC(=O)[C@@H]1SCCCSCC(=O)O [AE1-329],nuclear p65 immunofluorescent signal,"BV-2 cells, 60 minutes after LPS 100 ng/ml, AE1-329 100 nM",significantly attenuated
same,LPS-induced nuclear translocation of NF-κB subunits p65 and p50 (Western),"BV-2 cells, LPS 100 ng/ml, AE1-329 100 nM, vs vehicle",reduced levels of NF-κB nuclear translocation
same,"time of maximal attenuation of nuclear translocation, NF-κB p65","BV-2 cells, LPS + AE1-329",60 min
same,"time of maximal attenuation of nuclear translocation, p50","BV-2 cells, LPS + AE1-329",120 min
same,cytoplasmic levels of p65 and p50,"LPS-treated BV-2 cells, AE1-329 vs vehicle",increased
